# Molecular target: mTOR/GbL/Raptor (mTORC1) (Homo sapiens, UniProt P42345)
# Assay: mTOR/GbL/Raptor (mTORC1) ELISA assay
# Type: biochemical
# Settings: phosphorylation of 4E-BP1; 0.2 nM mTORC1, 10 μM ATP, 50 nM NHis-tagged 4E-BP1
# Description: mTOR/GbL/Raptor (mTORC1) ELISA Assay
# The measurement of mTORC1 enzyme activity was performed in an ELISA assay format following the phosphorylation of 4E-BP1 protein. All experiments were performed in the 384-well format. Generally, 0.5 μL DMSO containing varying concentrations of the test compound was mixed with 15 μL enzyme solution. Kinase reactions were initiated with the addition of 15 μL of substrates-containing solution. The assay conditions were as follows; 0.2 nM mTORC1, 10 μM ATP and 50 nM NHis-tagged 4E-BP1 in 20 mM Hepes, pH 7.2, 1 mM DTT, 50 mM NaCl, 10 mM MnCl2, 0.02 mg/mL BSA, 0.01% CHAPS, 50 mM β-glycerophosphate. Following an incubation of 120 minutes at ambient temperature, 20 μL of the reaction volume was transferred to a Ni-Chelate-coated 384-well plate. The binding step of the 4E-BP1 protein proceeded for 60 minutes, followed by washing 4 times each with 50 μL of Tris-buffered saline solution (TBS). Anti-phospho-4E-BP1 rabbit-IgG (20 μL, 1:5000) in 5% BSA-TBST (0.2% Tween-20 in TBS) was added and further incubated for 60 minutes. Incubation with a secondary HRP-tagged anti-IgG was similarly performed after washing off the primary antibody (4 washes of 50 μL). Following the final wash step with TBST, 20 μL of SuperSignal ELISA Femto (Pierce Biotechnology) was added and the luminescence measured using an EnVision plate reader.
row,SMILES,IC50
1,"Cc1nc2cc(-c3ccc4c(c3)CN(c3nc(C(C)N)nc5c3CC(C)(C)CC5)CCO4)ccc2[nH]1 (centres unmarked) [Compound 24, 1-{6,6-dimethyl-4-[7-(2-methyl-1H-benzimidazol-5-yl)-2,3-dihydro-1,4-benzoxazepin-4(5H)-yl]-5,6,7,8-tetrahydroquinazolin-2-yl}ethanamine]",≤ 0.1 µM
2,"Cc1nc2cc(-c3ccc4c(c3)CN(c3nc(CN(C)C)nc(C)c3CC(C)C)CCO4)ccc2[nH]1 [Compound 23, N,N-dimethyl-1-{4-methyl-6-[7-(2-methyl-1H-benzimidazol-5-yl)-2,3-dihydro-1,4-benzoxazepin-4(5H)-yl]-5-(2-methylpropyl)pyrimidin-2-yl}methanamine]",0.1 to 0.5 µM
3,"COC(=O)Cc1c(C)nc(CN(C)C)nc1N1CCOc2ccc(-c3ccc4nc(C)[nH]c4c3)cc2C1 [Compound 6, methyl {2-[(dimethylamino)methyl]-4-methyl-6-[7-(2-methyl-1H-benzimidazol-5-yl)-2,3-dihydro-1,4-benzoxazepin-4(5H)-yl]pyrimidin-5-yl}acetate]",0.5 to 2.5 µM
4,"COc1ccc(-c2ccc3c(c2)CN(c2nc(CN(C)C)nc4c2CC(C)(C)CC4)CCO3)cc1S(C)(=O)=O [Compound 9, 1-(6,6-dimethyl-4-{7-[4-(methyloxy)-3-(methylsulfonyl)phenyl]-2,3-dihydro-1,4-benzoxazepin-4(5H)-yl}-5,6,7,8-tetrahydroquinazolin-2-yl)-N,N-dimethylmethanamine]",0.5 to 2.5 µM
5,"Cc1nc2cc(-c3ccc4c(c3)CN(c3nc(CN(C)C)nc(C)c3Cl)CCO4)ccc2[nH]1 [Compound 31, 1-{5-chloro-4-methyl-6-[7-(2-methyl-1H-benzimidazol-5-yl)-2,3-dihydro-1,4-benzoxazepin-4(5H)-yl]pyrimidin-2-yl}-N,N-dimethylmethanamine]",0.5 to 2.5 µM
6,"Cc1nc2cc(-c3ccc4c(c3)CN(c3nc(NC5CNC5)nc(C)c3Cc3ccc(F)cc3)CCO4)ccc2[nH]1 [Compound 14, N-azetidin-3-yl-5-[(4-fluorophenyl)methyl]-4-methyl-6-[7-(2-methyl-1H-benzimidazol-5-yl)-2,3-dihydro-1,4-benzoxazepin-4(5H)-yl]pyrimidin-2-amine]",≤ 0.1 µM
7,"CC1(C)CCc2nc(N)nc(N3CCOc4ccc(-c5ccc6[nH]cnc6c5)cc4C3)c2C1 [Compound 27, 4-[7-(1H-benzimidazol-5-yl)-2,3-dihydro-1,4-benzoxazepin-4(5H)-yl]-6,6-dimethyl-5,6,7,8-tetrahydroquinazolin-2-amine]",≤ 0.1 µM
8,"CCN(CC)Cc1nc(C)c(C(C)C)c(N2CCOc3ccc(-c4ccc5nc(C)[nH]c5c4)cc3C2)n1 [Compound 3, N-ethyl-N-({4-methyl-6-[7-(2-methyl-1H-benzimidazol-5-yl)-2,3-dihydro-1,4-benzoxazepin-4(5H)-yl]-5-(1-methylethyl)pyrimidin-2-yl}methyl)ethanamine]",0.1 to 0.5 µM
9,"Cc1nc2cc(-c3ccc4c(c3)CN(c3nc(CN(C)C)nc(C)c3CCCF)CCO4)ccc2[nH]1 [Compound 22, 1-{5-(3-fluoropropyl)-4-methyl-6-[7-(2-methyl-1H-benzimidazol-5-yl)-2,3-dihydro-1,4-benzoxazepin-4(5H)-yl]pyrimidin-2-yl}-N,N-dimethylmethanamine]",0.5 to 2.5 µM
10,"CCNc1nc(C)c(Cc2ccc(F)cc2)c(N2CCOc3ccc(-c4ccc5[nH]c(C)nc5c4)cc3C2)n1 [Compound 12, N-ethyl-5-[(4-fluorophenyl)methyl]-4-methyl-6-[7-(2-methyl-1H-benzimidazol-5-yl)-2,3-dihydro-1,4-benzoxazepin-4(5H)-yl]pyrimidin-2-amine]",≤ 0.1 µM
11,"CCNc1nc2cc(-c3ccc4c(c3)CN(c3nc(N)nc(C)c3C(C)C)CCO4)ccc2[nH]1 [Compound 42, 5-{4-[2-amino-6-methyl-5-(1-methylethyl)pyrimidin-4-yl]-2,3,4,5-tetrahydro-1,4-benzoxazepin-7-yl}-N-ethyl-1H-benzimidazol-2-amine]",≤ 0.1 µM
12,"Cc1nc(N)nc(N2CCOc3ccc(-c4cnc5[nH]cnc5c4)cc3C2)c1C(C)C [Compound 52, 4-[7-(3H-imidazo[4,5-b]pyridin-6-yl)-2,3-dihydro-1,4-benzoxazepin-4(5H)-yl]-6-methyl-5-(1-methylethyl)pyrimidine-2-amine]",≤ 0.1 µM
13,"Cc1nc2cc(-c3ccc4c(c3)CN(c3nc(CN(C)C)nc(C)c3Br)CCO4)ccc2[nH]1 [Compound 30, 1-{5-bromo-4-methyl-6-[7-(2-methyl-1H-benzimidazol-5-yl)-2,3-dihydro-1,4-benzoxazepin-4(5H)-yl]pyrimidin-2-yl}-N,N-dimethylmethanamine]",0.5 to 2.5 µM
14,"Cc1nc2cc(-c3ccc4c(c3)CN(c3nc(CN(C)C)nc(C)c3-c3ccccc3)CCO4)ccc2[nH]1 [Compound 21, N,N-dimethyl-1-{4-methyl-6-[7-(2-methyl-1H-benzimidazol-5-yl)-2,3-dihydro-1,4-benzoxazepin-4(5H)-yl]-5-phenylpyrimidin-2-yl}methanamine]",0.1 to 0.5 µM
15,"Cc1nc2cc(-c3ccc4c(c3)CN(c3nc(CNCCF)nc(C)c3C(C)C)CCO4)ccc2[nH]1 [Compound 34, 2-fluoro-N-({4-methyl-6-[7-(2-methyl-1H-benzimidazol-5-yl)-2,3-dihydro-1,4-benzoxazepin-4(5H)-yl]-5-(1-methylethyl)pyrimidin-2-yl}methyl)ethanamine]",≤ 0.1 µM

# Second part, the molecule after the results:
row,IC50,SMILES
1,≤ 0.1 µM,"C=CCc1c(C)nc(N)nc1N1CCOc2ccc(-c3ccc4nc(C)[nH]c4c3)cc2C1 [Compound 35, 4-methyl-6-[7-(2-methyl-1H-benzimidazol-5-yl)-2,3-dihydro-1,4-benzoxazepin-4(5H)-yl]-5-prop-2-en-1-ylpyrimidin-2-amine]"
2,≤ 0.1 µM,"Cc1nc2cc(-c3ccc4c(c3)CN(c3nc(N)nc(C)c3C(C)C)CCO4)ccc2[nH]1 [Compound 41, 4-methyl-6-[7-(2-methyl-1H-benzimidazol-5-yl)-2,3-dihydro-1,4-benzoxazepin-4(5H)-yl]-5-(1-methylethyl)pyrimidin-2-amine]"
3,≤ 0.1 µM,"Cc1nc2cc(-c3ccc4c(c3)CN(c3nc(NCCCN(C)C)nc(C)c3Cc3ccc(F)cc3)CCO4)ccc2[nH]1 [Compound 13, N′-{5-[(4-fluorophenyl)methyl]-4-methyl-6-[7-(2-methyl-1H-benzimidazol-5-yl)-2,3-dihydro-1,4-benzoxazepin-4(5H)-yl]pyrimidin-2-yl}-N,N-dimethylpropane-1,3-diamine]"
4,≤ 0.1 µM,"COC(=O)Nc1nc2cc(-c3ccc4c(c3)CN(c3nc(N)nc(C)c3C(C)C)CCO4)ccc2[nH]1 [Compound 17, methyl (5-{4-[2-amino-6-methyl-5-(1-methylethyl)pyrimidin-4-yl]-2,3,4,5-tetrahydro-1,4-benzoxazepin-7-yl}-1H-benzimidazol-2-yl)carbamate]"
5,≤ 0.1 µM,"CC1(C)CCc2nc(N)nc(N3CCOc4ccc(-c5cnc6[nH]cnc6c5)cc4C3)c2C1 [Compound 45, 4-[7-(3H-imidazo[4,5-b]pyridin-6-yl)-2,3-dihydro-1,4-benzoxazepin-4(5H)-yl]-6,6-dimethyl-5,6,7,8-tetrahydroquinazolin-2-amine]"
6,0.1 to 0.5 µM,"Cc1nc2cc(-c3ccc4c(c3)CN(c3nc(CN5CCCC5)nc(C)c3C(C)C)CCO4)ccc2[nH]1 [Compound 20, 7-(2-methyl-1H-benzimidazol-5-yl)-4-[6-methyl-5-(1-methylethyl)-2-(pyrrolidin-1-ylmethyl)pyrimidin-4-yl]-2,3,4,5-tetrahydro-1,4-benzoxazepine]"
7,≤ 0.1 µM,"Cc1nc2cc(-c3ccc4c(c3)CN(c3nc(CF)nc5c3CC(C)(C)CC5)CCO4)ccc2[nH]1 [Compound 25, 4-[2-(fluoromethyl)-6,6-dimethyl-5,6,7,8-tetrahydroquinazolin-4-yl]-7-(2-methyl-1H-benzimidazol-5-yl)-2,3,4,5-tetrahydro-1,4-benzoxazepine]"
8,0.5 to 2.5 µM,"Cc1nc2ccc(-c3ccc4c(c3)CN(c3nc(CN(C)C)nc(C)c3C)CCO4)cc2[nH]1 [Compound 2, I-{4,5-dimethyl-6-[7-(2-methyl-1H-benzimidazol-6-yl)-2,3-dihydro-1,4-benzoxazepin-4(5H)-yl]pyrimidin-2-yl}-N,N-dimethylmethanamine]"

# — patent US20140073628A1, “BENZOXAZEPINES ASN INHIBITORS OF P13K/M TOR AND METHODS OF THEIR USE AND MANUFACTURE” (priority 2010, published 2014)
